Results taken from patent US20230040247A1, “COMPOUNDS FOR TREATING NEURODEGENERATIVE DISEASES” (Amabiotics, priority 2019, published 2023).

Tested on: endogenous a-synuclein phosphorylation at serine 129
Assay: huPFFs-induced endogenous a-synuclein phosphorylation at serine 129 in primary cortical cultures (EP1536Y immunofluorescence)
Type: cell-based, mouse
Experimental: The study was designed to evaluate the effects of queuine in an in vitro cell-based experimental model of synucleinopathy. The study aimed to evaluate the impact of queuine on the experimental synucleinopathy, in particular of the Lewy body type, induced by exogenous human preformed a-synuclein fibrils (huPFFs) in cortical cultures of wild-type (WT) mice (Volpicelli-Daley et al. (2011) Neuron. 72:57-7).
Queuine was evaluated for its capability to afford protection against the induction of endogenous a-synuclein phosphorylation at serine 129 (a surrogate marker of de novo a-synuclein aggregation) triggered by exposure to exogenous human recombinant (unphosphorylated) a-synuclein preformed fibrils (huPFFs).
Primary cultures of dissociated cortices from embryonic day E18 WT mouse embryos were used as the biological system. Timed pregnant female mice were received from Charles River Laboratories 2 days before initiation of the primary culture. […] At 30 DIV, the neuronal cultures were fixed with PFA, and the effects of the treatments were evaluated by performing two double immunostainings: • (i) D37A6/Syn1 to detect total rodent a-synuclein/human plus rodent non aggregated a-synuclein; • (ii) EP1536Y/Syn211 to detect rodent and human a-synuclein phosphorylated at S129/total human a-synuclein.
The induction of a-synuclein phosphorylation was quantified by measuring the accumulation of phospho-a-synuclein (length of the phospho-a-synuclein-positive neurite network, number of phospho-a-synuclein positive cell bodies).
The experimental conditions were performed in quadruplicate (for compound-treated conditions+/−huPFFs) and triplicate (for controls+/−huPFFs) wells. An array of nine individual microscopic fields were acquired in each single well, and 3 channels were recorded for each field (green fluorescence excited @488 nm, red fluorescence excited @594 nm, and phase contrast). […]
To further evaluate the effects of queuine, the EP1536Y signal was segmented to quantify the phospho-a-synuclein positive neurites. […]

## 7-(3,4-trans-4,5-cis-dihydroxy-1-cyclopenten-3-ylaminomethyl)-7-deazaguanine [queuine]
WT mouse cortical neurones without huPFFs, concentration range tested (10 μM, 1 μM, 0.1 μM)
  effect on untreated neurones (induction of synuclein phosphorylation at S129): no effect
WT mouse cortical neurons exposed to 10 nM huPFFs, queuine pretreatment at 100 nM compared to control (FIG. 1)
  EP1536Y immunofluorescence signal, representative of the phosphorylation of a-synuclein: decreased
huPFFs-treated (10 nM) WT mouse cortical neurones, all doses tested (10 μM, 1 μM, 0.1 μM), normalised to huPFFs condition (FIG. 2), significant
  decrease of a-synuclein phosphorylation at S129 induced by huPFFs: approx. −50%
